Experimental data taken from ChEMBL document CHEMBL1240439, “Synthesis and docking studies of novel benzopyran-2-ones with anticancer activity” (2010).
Calls of active or inactive are those of the source.

What was measured:
Type in all cases: functional
SK-OV-3 = test: Cytotoxicity against human SKOV3 cells assessed as cell growth at 10 uM after 48 hrs by sulforhodamine B assay
SW-620 = test: Cytotoxicity against human SW620 cells assessed as cell growth at 10 uM after 48 hrs by sulforhodamine B assay
OVCAR-4 = test: Cytotoxicity against human OVCAR4 cells assessed as cell growth at 10 uM after 48 hrs by sulforhodamine B assay
SNB-75 = test: Cytotoxicity against human SNB75 cells assessed as cell growth at 10 uM after 48 hrs by sulforhodamine B assay
DU-145 = test: Cytotoxicity against human DU145 cells assessed as cell growth at 10 uM after 48 hrs by sulforhodamine B assay
MDA-MB-231 = test: Cytotoxicity against human MDA-MB-231 cells assessed as cell growth at 10 uM after 48 hrs by sulforhodamine B assay
M14 = test: Cytotoxicity against human M14 cells assessed as cell growth at 10 uM after 48 hrs by sulforhodamine B assay
HCT-15 = test: Cytotoxicity against human HCT15 cells assessed as cell growth at 10 uM after 48 hrs by sulforhodamine B assay
A549 = test: Cytotoxicity against human A549 cells assessed as cell growth at 10 uM after 48 hrs by sulforhodamine B assay
NCI-H226 = test: Cytotoxicity against human NCI-H226 cells assessed as cell growth at 10 uM after 48 hrs by sulforhodamine B assay
HOP-92 = test: Cytotoxicity against human HOP92 cells assessed as cell growth at 10 uM after 48 hrs by sulforhodamine B assay
Hs-578T = test: Cytotoxicity against human Hs 578T cells assessed as cell growth at 10 uM after 48 hrs by sulforhodamine B assay
NCI-H460 = test: Cytotoxicity against human NCI-H460 cells assessed as cell growth at 10 uM after 48 hrs by sulforhodamine B assay
MDA-MB-435 = test: Cytotoxicity against human MDA-MB-435 cells assessed as cell growth at 10 uM after 48 hrs by sulforhodamine B assay
MOLT-4 = test: Cytotoxicity against human MOLT4 cells assessed as cell growth at 10 uM after 48 hrs by sulforhodamine B assay
HT-29 = test: Cytotoxicity against human HT-29 cells assessed as cell growth at 10 uM after 48 hrs by sulforhodamine B assay
786-0 = test: Cytotoxicity against human 786-0 cells assessed as cell growth at 10 uM after 48 hrs by sulforhodamine B assay
SF-539 = test: Cytotoxicity against human SF539 cells assessed as cell growth at 10 uM after 48 hrs by sulforhodamine B assay
SF-268 = test: Cytotoxicity against human SF268 cells assessed as cell growth at 10 uM after 48 hrs by sulforhodamine B assay
OVCAR-3 = test: Cytotoxicity against human OVCAR-3 cells assessed as cell growth at 10 uM after 48 hrs by sulforhodamine B assay
UACC-62 = test: Cytotoxicity against human UACC62 cells assessed as cell growth at 10 uM after 48 hrs by sulforhodamine B assay
RPMI-8226 = test: Cytotoxicity against human RPMI8226 cells assessed as cell growth at 10 uM after 48 hrs by sulforhodamine B assay
K562 = test: Cytotoxicity against human K562 cells assessed as cell growth at 10 uM after 48 hrs by sulforhodamine B assay
TK-10 = test: Cytotoxicity against human TK10 cells assessed as cell growth at 10 uM after 48 hrs by sulforhodamine B assay
COLO 205 = test: Cytotoxicity against human COLO205 cells assessed as cell growth at 10 uM after 48 hrs by sulforhodamine B assay
SN12C = test: Cytotoxicity against human SN12C cells assessed as cell growth at 10 uM after 48 hrs by sulforhodamine B assay
KM12 = test: Cytotoxicity against human KM12 cells assessed as cell growth at 10 uM after 48 hrs by sulforhodamine B assay
NCI-H522 = test: Cytotoxicity against human NCI-H522 cells assessed as cell growth at 10 uM after 48 hrs by sulforhodamine B assay
SF-295 = test: Cytotoxicity against human SF295 cells assessed as cell growth at 10 uM after 48 hrs by sulforhodamine B assay
OVCAR-5 = test: Cytotoxicity against human OVCAR5 cells assessed as cell growth at 10 uM after 48 hrs by sulforhodamine B assay
PC-3 = test: Cytotoxicity against human PC3 cells assessed as cell growth at 10 uM after 48 hrs by sulforhodamine B assay
SK-MEL-2 = test: Cytotoxicity against human SK-MEL-2 cells assessed as cell growth at 10 uM after 48 hrs by sulforhodamine B assay
HOP-62 = test: Cytotoxicity against human HOP62 cells assessed as cell growth at 10 uM after 48 hrs by sulforhodamine B assay
BT-549 = test: Cytotoxicity against human BT549 cells assessed as cell growth at 10 uM after 48 hrs by sulforhodamine B assay
SK-MEL-5 = test: Cytotoxicity against human SK-MEL-5 cells assessed as cell growth at 10 uM after 48 hrs by sulforhodamine B assay
MDA-MB-468 = test: Cytotoxicity against human MDA-MB-468 cells assessed as cell growth at 10 uM after 48 hrs by sulforhodamine B assay
LOX IMVI = test: Cytotoxicity against human LOXIMVI cells assessed as cell growth at 10 uM after 48 hrs by sulforhodamine B assay
T47D = test: Cytotoxicity against human T47D cells assessed as cell growth at 10 uM after 48 hrs by sulforhodamine B assay
HCT-116 = test: Cytotoxicity against human HCT116 cells assessed as cell growth at 10 uM after 48 hrs by sulforhodamine B assay
CCRF-CEM = test: Cytotoxicity against human CCRF-CEM cells assessed as cell growth at 10 uM after 48 hrs by sulforhodamine B assay
U-251 = test: Cytotoxicity against human U251 cells assessed as cell growth at 10 uM after 48 hrs by sulforhodamine B assay
MCF7 = test: Cytotoxicity against human MCF7 cells assessed as cell growth at 10 uM after 48 hrs by sulforhodamine B assay
HCC 2998 = test: Cytotoxicity against human HCC2998 cells assessed as cell growth at 10 uM after 48 hrs by sulforhodamine B assay
OVCAR-8 = test: Cytotoxicity against human OVCAR8 cells assessed as cell growth at 10 uM after 48 hrs by sulforhodamine B assay
SR = test: Cytotoxicity against human SR cells assessed as cell growth at 10 uM after 48 hrs by sulforhodamine B assay
Malme-3M = test: Cytotoxicity against human MALME-3M cells assessed as cell growth at 10 uM after 48 hrs by sulforhodamine B assay
EKVX = test: Cytotoxicity against human EKVX cells assessed as cell growth at 10 uM after 48 hrs by sulforhodamine B assay
NCI-H23 = test: Cytotoxicity against human NCI-H23 cells assessed as cell growth at 10 uM after 48 hrs by sulforhodamine B assay
UO-31 = test: Cytotoxicity against human UO31 cells assessed as cell growth at 10 uM after 48 hrs by sulforhodamine B assay
HL-60(TB) = test: Cytotoxicity against human HL-60(TB) cells assessed as cell growth at 10 uM after 48 hrs by sulforhodamine B assay
NCI-H322M = test: Cytotoxicity against human NCI-H322M cells assessed as cell growth at 10 uM after 48 hrs by sulforhodamine B assay
A498 = test: Cytotoxicity against human A498 cells assessed as cell growth at 10 uM after 48 hrs by sulforhodamine B assay
IGROV-1 = test: Cytotoxicity against human IGROV1 cells assessed as cell growth at 10 uM after 48 hrs by sulforhodamine B assay
ACHN = test: Cytotoxicity against human ACHN cells assessed as cell growth at 10 uM after 48 hrs by sulforhodamine B assay
SK-MEL-28 = test: Cytotoxicity against human SK-MEL-28 cells assessed as cell growth at 10 uM after 48 hrs by sulforhodamine B assay
UACC-257 = test: Cytotoxicity against human UACC257 cells assessed as cell growth at 10 uM after 48 hrs by sulforhodamine B assay
RXF 393 = test: Cytotoxicity against human RXF393 cells assessed as cell growth at 10 uM after 48 hrs by sulforhodamine B assay
SNB-19 = test: Cytotoxicity against human SNB19 cells assessed as cell growth at 10 uM after 48 hrs by sulforhodamine B assay

Measured: Activity

Cc1cc(C)n(C(=O)COc2ccc3c(-c4ccccc4)cc(=O)oc3c2C)n1
inactive: SK-OV-3 | SW-620 | OVCAR-4 | SNB-75 | DU-145 | MDA-MB-231 | M14 | HCT-15 | A549 | NCI-H226 | HOP-92 | Hs-578T | NCI-H460 | MDA-MB-435 | MOLT-4 | HT-29 | 786-0 | SF-539 | SF-268 | OVCAR-3 | UACC-62 | RPMI-8226 | K562 | TK-10 | COLO 205 | SN12C | KM12 | NCI-H522 | SF-295 | OVCAR-5 | PC-3 | SK-MEL-2 | HOP-62 | BT-549 | SK-MEL-5 | MDA-MB-468 | LOX IMVI | T47D | HCT-116 | CCRF-CEM | U-251 | MCF7 | HCC 2998 | OVCAR-8 | SR | Malme-3M | EKVX | NCI-H23 | UO-31 | HL-60(TB) | NCI-H322M | A498 | IGROV-1 | ACHN | SK-MEL-28 | UACC-257 | RXF 393 | SNB-19

CSc1nnc(COc2ccc3c(-c4ccccc4)cc(=O)oc3c2C)o1
inactive: SK-OV-3 | SW-620 | OVCAR-4 | SNB-75 | DU-145 | MDA-MB-231 | M14 | HCT-15 | A549 | NCI-H226 | HOP-92 | Hs-578T | NCI-H460 | MDA-MB-435 | MOLT-4 | HT-29 | 786-0 | SF-539 | SF-268 | OVCAR-3 | UACC-62 | RPMI-8226 | K562 | TK-10 | COLO 205 | SN12C | KM12 | NCI-H522 | SF-295 | OVCAR-5 | PC-3 | SK-MEL-2 | HOP-62 | BT-549 | SK-MEL-5 | MDA-MB-468 | LOX IMVI | T47D | HCT-116 | CCRF-CEM | U-251 | MCF7 | HCC 2998 | OVCAR-8 | SR | Malme-3M | EKVX | NCI-H23 | UO-31 | HL-60(TB) | NCI-H322M | A498 | IGROV-1 | ACHN | SK-MEL-28 | UACC-257 | RXF 393 | SNB-19
